Measured values reported in patent publication US20100215579A1, “PHEN-NAPHTHALENE AND PHEN-QUINOLINE DERIVATIVES AND THEIR USE FOR BINDING AND IMAGING AMYLOID PLAQUES” (The Trustees of the University of Pennsylvania, priority 2007, published 2010).

What was measured:
[1] = Log P (octanol/Na2HPO4 buffer pH 7.4); assay type: physicochemical; settings: pH 7.4
[2] = Biodistribution in ICR mice after an iv injection; assay type: in vivo
From the text: Biodistribution in ICR Mice After an iv Injection of [^18F][4-(6-{2-[2-(2-Fluoro-ethoxy)-ethoxy]-ethoxy}-naphthalen-2-yl)-phenyl]-methyl-amine in 1% EtOH/0.1% BSA in Water
(% dose/organ, avg of 3 mice±SD)
(% dose/g, avg of 3 mice±SD)
Biodistribution in ICR Mice After an iv Injection of [^18F]19a in 3% EtOH/0.1% BSA in Water
Biodistribution in ICR Mice After an iv Injection of [^18F]34a in 5% EtOH/0.1% BSA in Water
Biodistribution in ICR Mice After an iv Injection of [^18F]32a in 1% EtOH/0.1% BSA in Water

[3] = Blood, 2 min after iv injection
[4] = Blood, 30 min after iv injection
[5] = Bone, 30 min after iv injection
[6] = Brain, 2 min after iv injection
[7] = Brain, 30 min after iv injection
[8] = Heart, 2 min after iv injection
[9] = Heart, 30 min after iv injection
[10] = Kidney, 2 min after iv injection
[11] = Kidney, 30 min after iv injection
[12] = Kidney, 1 hr after iv injection
[13] = Kidney, 2 hr after iv injection
[14] = Liver, 2 min after iv injection
[15] = Liver, 30 min after iv injection
[16] = Lung, 30 min after iv injection
[17] = Muscle, 2 min after iv injection
[18] = Muscle, 30 min after iv injection
[19] = Muscle, 1 hr after iv injection
[20] = Muscle, 2 hr after iv injection
[21] = Skin, 30 min after iv injection
[22] = Spleen, 2 min after iv injection
[23] = Spleen, 30 min after iv injection
[24] = Spleen, 1 hr after iv injection
[25] = Spleen, 2 hr after iv injection

Log P [1]: 2.60
% dose/g [2, 3]: 6.66 ± 0.86 % dose/g
% dose/organ [2, 3]: 11.1 ± 0.91 % dose/organ
% dose/g [2, 4]: 4.15 ± 0.59 % dose/g
% dose/organ [2, 4]: 6.94 ± 0.59 % dose/organ
% dose/g ([2]; Blood, 1 hr after iv injection): 3.14 ± 0.37 % dose/g
% dose/organ ([2]; Blood, 1 hr after iv injection): 4.94 ± 0.09 % dose/organ
% dose/g ([2]; Blood, 2 hr after iv injection): 3.05 ± 0.26 % dose/g
% dose/organ ([2]; Blood, 2 hr after iv injection): 5.19 ± 0.14 % dose/organ
% dose/g ([2]; Bone, 2 min after iv injection): 1.32 ± 0.18 % dose/g
% dose/organ ([2]; Bone, 2 min after iv injection): 4.42 ± 0.82 % dose/organ
% dose/g [2, 5]: 0.78 ± 0.10 % dose/g
% dose/organ [2, 5]: 2.59 ± 0.17 % dose/organ
% dose/g ([2]; Bone, 1 hr after iv injection): 0.82 ± 0.21 % dose/g
% dose/organ ([2]; Bone, 1 hr after iv injection): 2.60 ± 0.41 % dose/organ
% dose/g ([2]; Bone, 2 hr after iv injection): 1.37 ± 0.15 % dose/g
% dose/organ ([2]; Bone, 2 hr after iv injection): 4.67 ± 0.26 % dose/organ
% dose/g [2, 6]: 5.55 ± 0.77 % dose/g
% dose/organ [2, 6]: 2.51 ± 0.29 % dose/organ
% dose/g [2, 7]: 1.29 ± 0.19 % dose/g
% dose/organ [2, 7]: 0.59 ± 0.07 % dose/organ
% dose/g ([2]; Brain, 1 hr after iv injection): 1.05 ± 0.20 % dose/g
% dose/organ ([2]; Brain, 1 hr after iv injection): 0.48 ± 0.06 % dose/organ
% dose/g ([2]; Brain, 2 hr after iv injection): 0.92 ± 0.10 % dose/g
% dose/organ ([2]; Brain, 2 hr after iv injection): 0.42 ± 0.06 % dose/organ
% dose/g [2, 8]: 5.67 ± 0.42 % dose/g
% dose/organ [2, 8]: 0.63 ± 0.02 % dose/organ
% dose/g [2, 9]: 1.74 ± 0.19 % dose/g
% dose/organ [2, 9]: 0.21 ± 0.02 % dose/organ
% dose/g ([2]; Heart, 1 hr after iv injection): 1.69 ± 0.35 % dose/g
% dose/organ ([2]; Heart, 1 hr after iv injection): 0.18 ± 0.01 % dose/organ
% dose/g ([2]; Heart, 2 hr after iv injection): 1.40 ± 0.08 % dose/g
% dose/organ ([2]; Heart, 2 hr after iv injection): 0.16 ± 0.01 % dose/organ
% dose/g [2, 10]: 7.88 ± 0.94 % dose/g
% dose/organ [2, 10]: 3.06 ± 0.21 % dose/organ
% dose/g [2, 11]: 3.61 ± 0.98 % dose/g
% dose/organ [2, 11]: 1.38 ± 0.26 % dose/organ
% dose/g [2, 12]: 3.82 ± 1.54 % dose/g
% dose/organ [2, 12]: 1.37 ± 0.25 % dose/organ
% dose/g [2, 13]: 2.41 ± 0.42 % dose/g
% dose/organ [2, 13]: 0.88 ± 0.12 % dose/organ
% dose/g [2, 14]: 27.0 ± 0.91 % dose/g
% dose/organ [2, 14]: 32.0 ± 1.81 % dose/organ
% dose/g [2, 15]: 21.5 ± 2.08 % dose/g
% dose/organ [2, 15]: 25.7 ± 0.95 % dose/organ
% dose/g ([2]; Liver, 1 hr after iv injection): 14.1 ± 1.85 % dose/g
% dose/organ ([2]; Liver, 1 hr after iv injection): 15.7 ± 1.34 % dose/organ
% dose/g ([2]; Liver, 2 hr after iv injection): 8.85 ± 0.76 % dose/g
% dose/organ ([2]; Liver, 2 hr after iv injection): 10.6 ± 0.65 % dose/organ
% dose/g ([2]; Lung, 2 min after iv injection): 9.19 ± 1.18 % dose/g
% dose/organ ([2]; Lung, 2 min after iv injection): 1.76 ± 0.20 % dose/organ
% dose/g [2, 16]: 3.44 ± 0.49 % dose/g
% dose/organ [2, 16]: 0.67 ± 0.05 % dose/organ
% dose/g ([2]; Lung, 1 hr after iv injection): 2.68 ± 0.48 % dose/g
% dose/organ ([2]; Lung, 1 hr after iv injection): 0.41 ± 0.07 % dose/organ
% dose/g ([2]; Lung, 2 hr after iv injection): 2.48 ± 0.48 % dose/g
% dose/organ ([2]; Lung, 2 hr after iv injection): 0.45 ± 0.11 % dose/organ
% dose/g [2, 17]: 0.77 ± 0.14 % dose/g
% dose/organ [2, 17]: 7.42 ± 1.87 % dose/organ
% dose/g [2, 18]: 0.75 ± 0.09 % dose/g
% dose/organ [2, 18]: 7.22 ± 0.42 % dose/organ
% dose/g [2, 19]: 0.87 ± 0.03 % dose/g
% dose/organ [2, 19]: 7.86 ± 0.68 % dose/organ
% dose/g [2, 20]: 0.62 ± 0.11 % dose/g
% dose/organ [2, 20]: 6.02 ± 0.62 % dose/organ
% dose/g ([2]; Skin, 2 min after iv injection): 0.70 ± 0.04 % dose/g
% dose/organ ([2]; Skin, 2 min after iv injection): 2.51 ± 0.07 % dose/organ
% dose/g [2, 21]: 1.37 ± 0.11 % dose/g
% dose/organ [2, 21]: 4.93 ± 0.08 % dose/organ
% dose/g ([2]; Skin, 1 hr after iv injection): 1.32 ± 0.18 % dose/g
% dose/organ ([2]; Skin, 1 hr after iv injection): 4.46 ± 0.05 % dose/organ
% dose/g ([2]; Skin, 2 hr after iv injection): 0.77 ± 0.13 % dose/g
% dose/organ ([2]; Skin, 2 hr after iv injection): 2.81 ± 0.29 % dose/organ
% dose/g [2, 22]: 6.94 ± 0.99 % dose/g
% dose/organ [2, 22]: 0.79 ± 0.29 % dose/organ
% dose/g [2, 23]: 5.03 ± 1.18 % dose/g
% dose/organ [2, 23]: 0.53 ± 0.04 % dose/organ
% dose/g [2, 24]: 3.60 ± 0.15 % dose/g
% dose/organ [2, 24]: 0.30 ± 0.00 % dose/organ
% dose/g [2, 25]: 3.38 ± 0.52 % dose/g
% dose/organ [2, 25]: 0.31 ± 0.02 % dose/organ
Compound: CNc1ccc2cc(-c3ccc(OCCOCCOCC[18F])cc3)ccc2c1 [[^18F]19a]
